Data set [1] is described as follows: Therapeutic index, ratio of LD50 in Kunming mouse to ED50 for analgesic activity in mouse. It is filed as organism-based. The conditions noted are these: in vivo, read-out: Ratio LD50/ED50.
Data set [2] can be described thus: Toxicity in ig dosed Kunming mouse. In kind it is organism-based. The note with it: in vivo, po.
The subject of data set [3] is Mus musculus. Kind of data set: Analgesic activity in ig dosed mouse by hot plate test. It is filed as functional. The note with it: po.

From ChEMBL document CHEMBL2040812, “A novel franchetine type norditerpenoid isolated from the roots of Aconitum carmichaeli Debx. with potential analgesic activity and less toxicity” (Bioorg Med Chem Lett, 2012) come the findings set out here.

Regarding `CCN1C[C@]2(COC)[C@H](O)C[C@H](OC)[C@@]34[C@@H]5C[C@@]6(O)[C@H](OC(=O)c7ccccc7)[C@@H]5[C@@](OC(C)=O)([C@@H]([C@H](OC)[C@H]23)[C@@H]14)[C@@H](O)[C@@H]6OC` [ACONITINE], the selectivity ratio in data set [1] was determined as 2. The molecule also displayed a 50% lethal dose (LD50) in data set [2] of 0.16 mg/kg. Besides, in data set [3], the 50% effect level (ED50) was put at a dose of 0.08 mg/kg.

On to `CCN1C[C@]2(COC)CC[C@H](OC)[C@@]34C1O[C@H](C=C1[C@H]5[C@@H](O)[C@H](C[C@H]53)[C@@H](OC)[C@H]1O)[C@H]24` [GUIWULINE], for which the selectivity ratio in data set [1] was determined as 33. Also, the median lethal dose (LD50) in data set [2] came out at 500 mg/kg. In addition, in data set [3], the ED50 stood at 15 mg/kg.
